The values that follow come from patent US11696903B2, “Compounds and methods for scavenging dicarbonyl electrophiles” (VANDERBILT UNIVERSITY, priority 2019, dated 2023).

Data set [1] is described as follows: Reaction rate of scavengers with dicarbonyl electrophiles / LG relative to lysine. The note with it: faster than lysine. The text has this: Under conditions such as inflammation and/or accumulated mutations, epithelial cells and adjacent immune cells express genes encoding enzymes involved in carcinogenesis, such as prostaglandin-endoperoxide synthase (PGHS2; COX2), NADPH oxidases, and spermine oxidase. The products of these enzymes (prostaglandins, O2D, and H2O2 plus 3-aminopropanal) lead to formation of dicarbonyl electrophiles: levuglandins (LGs), malondialdehyde (MDA), 4-oxo-nonenal (4-O NE), and acrolein. Electrophiles may lead to immune dysfunction and neoplastic risk by forming adducts with proteins and DNA11-15. However, the role of these reactive aldehydes in colon carcinogenesis is previously unknown. The present inventors have discovered that the level of LG-protein adducts is increased in the colon tissues of i) human ulcerative colitis (UC), colitis-associated carcinogenesis (CAC), and CRC; ii) mice treated with azoxymethane-dextran sulfate sodium (AOM-DSS), a model of CAC; and iii) transgenic mice with a tamoxifen-inducible disruption of Apc using the colon-specific, caudal type homeobox 2 (CDX2) Cre (CDX2P-CreERT2;Apcff), which recapitulates sporadic/genetically-driven CRC. […]

A further data set has as its system colonic immune response. Briefly: Colonic immune response in AOM-DSS mice (infiltration score, gene expression, IF). It is filed as in vivo, C57BL/6 mice. An excerpt:
The present inventors used the tissues generated for FIG. 5 to study immune cell responses in AOM-DSS-treated mice±EtHOBA.
Using the tissues from the same mice as in FIG. 5, the present inventors analyzed the expression of key genes encoding mediators of the innate and adaptive immune response. […] Importantly, the overall pattern was that the genes encoding antitumoral effectors were expressed at a higher level in mice that were given compounds of the present invention. […] In contrast, the gene encoding the immunosuppressive myeloid mediator AR G1 was not affected by EtHOBA (FIG. 9). Using IF, we confirmed that mice treated with AOM-DSS mice that were given EtHOBA had increased CD68^+NOS2^+ (M1 macrophages) in colon tumors (FIG. 10).

For data set [2], the system named is C57BL/6 mice in the AOM-DSS model. Briefly: AOM-DSS model of colitis-associated carcinoma (tumors, dysplasia, body weight). It is filed as in vivo. The method, then: FIGS. 5A, 5B, 5C, 5D, 5E, 5F, and 5G show mice (n=10-12/group)±AOM-DSS±1.5 mg/ml EtHOBA. (A) Body weight; ″P<0.05 compared to AOM-DSS-treated mice. (B) Tumor number. (C) Average tumor size per mouse. (D) Tumor burden. (E) Number of adenomas. (F) Frequency of diagnoses; ND, no dysplasia. (G) H&E staining; each arrow depicts a tumor. Scale bar, 50 μm.
Animals receive an i.p. injection of the carcinogen AOM (12.5 mg/kg) followed by 3 cycles of 4% DSS, each for 4 days, over a total of 56-77 days. To directly determine the role of electrophiles in colon carcinogenesis, the present inventors tested the effect of EtHOBA in C57BL/6 mice in the AOM-DSS model. Mice were given 1.5 mg/ml EtHOBA one day after AOM and continued throughout the experiments, except during the DSS cycles, to avoid mixing. The present inventors assessed electrophiles in colons of mice treated with AOM-DSS, by IHC for electrophile protein adducts. […] In total, without the scavenger treatment, 25% of mice had HGD and the remaining 75% had L GD; in contrast, in those receiving EtHOBA, 20% had no dysplasia, none had HGD, and 80% had only L GD, a significant overall difference in diagnoses (FIGS. 5F-G).

The next data set relates to DNA damage (pH2AX). In words: DNA damage by pH2AX staining in infected mice. It is filed as in vivo. The note with it: infected mice with EtSA treatment; p<0.05. On the procedure: (§1) As discussed further in the Examples, the human gastric epithelial cell line AGS was infected with Hp PMSS1±10 mM EtSA. FVB/N insulin-gastrin (INS-GAS) mice and Mongolian gerbils were infected for 8 wk with Hp PMSS1 and 7.13, respectively; EtSA (0.75% in water) was given to animals beginning one wk post-infection. Lys-LG adducts, a marker of electrophile reactions, and EtSA were quantified by LC/EST/MS/MS. Histology was analyzed on H&E staining. DNA damage was evaluated by pH2AX staining. Hp colonization was quantified by culture. Mucosal immune responses were determined by RNA profiling and by Luminex assay. Mice were imaged using PET/CT with ^18F-FDG (inflammation marker) and ^18F—NaF (tumor marker).

The test system of data set [3] is gastric uptake of 18F-NaF (tumor marker) and 18F-FDG (inflammation marker). In words: PET/CT imaging with 18F-FDG and 18F-NaF. Type of data set: in vivo. The note with it: Hp-infected mice, EtSA. On the procedure: as §1
Where [4] appears, read: AOM-DSS, 1.5 mg/ml EtHOBA vs AOM-DSS alone.

As for `CCc1ccc(O)c(CN)c1` [EtHOBA, 5-ethyl-2-hydroxybenzylamine], the “rate of reaction with dicarbonyl electrophiles” value in data set [1] is on record as 3 orders of magnitude. Besides, the immune cell infiltration entry in the data set with colonic immune response (AOM-DSS mice, EtHOBA vs untreated) was “more influx of immune cells”. Further, in the data set on colonic immune response (AOM-DSS ± EtHOBA), the “Arg1 (ARG1) expression” value is “not affected”. In the data set with colonic immune response (IF, AOM-DSS mice), the “CD68+NOS2+ (M1 macrophages) in colon tumors” value is listed as “increased”. Further, the “histology in control mice” value in the data set on colonic immune response (control mice given EtHOBA) was “no effect on histology”. Also, the Il12a expression result with colonic immune response (non-tumor and tumor tissue, AOM-DSS ± EtHOBA) is “reached statistical significance for an increase”. The Il17 expression entry with colonic immune response (non-tumor tissue, AOM-DSS ± EtHOBA) is listed as “reached statistical significance for an increase”. For the same compound, in the data set on colonic immune response (tumor tissue, AOM-DSS ± EtHOBA), the Il12b expression entry is reported as “reached statistical significance for an increase”, the Nos2 expression result is “reached statistical significance for an increase” and the Tnfa expression entry is on record as “reached statistical significance for an increase”. The “mice with high grade dysplasia (HGD)” value in data set [2] (AOM-DSS + EtHOBA, without scavenger 25%) is “none”. For the same compound, the “mice with only low-grade dysplasia (LGD)” value in data set [2] (AOM-DSS + EtHOBA, without scavenger 75%) was found to be 80%. Besides, the “mice with no dysplasia” value in data set [2] (AOM-DSS + EtHOBA, without scavenger all mice had dysplasia) came to 20%. Besides, in data set [2] (setting [4]), the Tumor number result was “significantly less tumors”, the “body weight loss at each cycle of DSS” value is “less weight loss”, the “number of histologic adenomas” value is on record as “reduced number” and the total tumor burden result is “lower”. The tumor size entry in data set [2] (setting [4]) was “lower tumor size”. For the same compound, in data set [2] (control mice treated for 56 days, 1.5 mg/ml EtHOBA), the “body weight in control mice” value was “no change in body weight”. Moreover, in the data set on DNA damage (pH2AX), the “decrease of DNA damage” value is 71%. In data set [3], the “gastric uptake of the tumor marker 18F-NaF” value is reported as “decreased” and the “uptake of the inflammation marker 18F-FDG” value is reported as “not modified”.
